Source: patent US6667327B2, “Pyridine amido derivatives” (Hoffmann-La Roche Inc., priority 2003, dated 2003)

Tests used:
human MAO-B = molecular target: T1, human MAO-B (Homo sapiens, UniProt P27338); assay: [3H]Ro 19-6327 binding assay for MAO-B on membranes of transfected EBNA cells; settings: 20 nM [3H]Ro 19-6327, 1 hour at 25° C., membranes of EBNA cells transfected with human MAO-B
T1 construct: expressed in transfected cells; host or cells: EBNA cells (transient transfection); cell membranes
T1 sequence (P27338 1-520): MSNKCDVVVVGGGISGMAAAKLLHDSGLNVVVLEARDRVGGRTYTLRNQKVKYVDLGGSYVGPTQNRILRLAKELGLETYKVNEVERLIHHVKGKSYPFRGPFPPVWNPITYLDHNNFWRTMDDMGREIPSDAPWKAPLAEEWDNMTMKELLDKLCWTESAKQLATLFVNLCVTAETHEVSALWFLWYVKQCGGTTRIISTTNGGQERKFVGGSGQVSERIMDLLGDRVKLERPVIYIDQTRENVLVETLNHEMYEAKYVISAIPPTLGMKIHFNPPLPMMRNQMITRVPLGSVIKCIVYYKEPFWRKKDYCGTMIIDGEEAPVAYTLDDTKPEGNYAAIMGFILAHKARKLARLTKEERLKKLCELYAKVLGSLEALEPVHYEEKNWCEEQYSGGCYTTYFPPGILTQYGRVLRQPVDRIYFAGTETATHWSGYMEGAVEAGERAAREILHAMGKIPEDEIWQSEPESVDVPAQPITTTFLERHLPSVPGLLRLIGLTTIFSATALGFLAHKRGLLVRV
Experimental: (§1) The cDNA's encoding human MAO-A and MAO-B were transiently transfected into EBNA cells using the procedure described by E.-J. Schlaeger and K. Christensen (Transient Gene Expression in Mammalian Cells Grown in Serum-free Suspension Culture; Cytotechnology, 15: 1-13, 1998). After transfection, cells were homogeneised by means of a Polytron homogeneiser in 20 mM Tris HCI buffer, pH 8.0, containing 0.5 mM EGTA and 0.5 mM phenylmethanesulfonyl fluoride. Cell membranes were obtained by centrifugation at 45,000×g and, after two rinsing step with 20 mM Tris HCI buffer, pH 8.0, containing 0.5 mM EGTA, membranes were eventually re-suspended in the above buffer and aliquots stored at −80° C. until use.
(§2) MAO-A and MAO-B activities were assayed by [^3H]Ro 41-1049 [tritiated N-(2-aminoethyl)-5-(3-fluorophenyl)-4-thiazole-carboxamide] and [^3H] Ro 19-6327 [tritiated N-(2-aminoethyl)-5-chloro-2-pyridinecarboxamide, [^3H] lazabemide] binding, respectively, following the methods described by Cesura et al. (Characterization of the binding of [^3H]Ro 41-1049 to the active site of monoamine oxidase-A, Molec. Pharmacol. 1990, 37, 358-366; [^3H]Ro 19-6327: a reversible ligand and affinity-labeling probe for monoamine oxidase-B, Eur. J. Pharmacol., 1989, 162, 457-465). Briefly, membrane aliquots were incubated in the presence of 20 nM [^3H]Ro 41-1049 (MAO-A assay) and [^3H]Ro 19-6327 (MAO-B assay) for 1 hour at 37° C. and 25° C., respectively, with or without various concentrations of the compounds, in a final volume of 0.2 ml. The incubation buffer consisted of 50 mM Tris, 130 mM NaCl, 5 mM KCI, 1 mM MgCl2, 0.5 mM EGTA, buffered to pH 7.4 with HCl. The assay was terminated by filtering the samples through GF/C filters (Unifilter-96, Canberra Packard). The radioactivity retained on the filters was eventually counted for radioactivity by means of a Packard Top-Count scintillation counter, after addition of Microscint 40 scintillation fluid (Canberra Packard). Non-specific binding was determined in the presence of 10 μM clorgyline for MAO-A or 10 μM L-deprenyl for MAO-B.
(§3) IC50 values, that is, the concentration of a test compound of formula I required to inhibit the MAO-B enzyme activity by 50%, were determined from inhibition curves obtained using nine inhibitor concentrations in duplicate, by fitting data to a four parameter logistic equation using a computer program.

human MAO-A = molecular target: T2, human MAO-A (Homo sapiens, UniProt P21397); assay: [3H]Ro 41-1049 binding assay for MAO-A on membranes of transfected EBNA cells; settings: 20 nM [3H]Ro 41-1049, 1 hour at 37° C., membranes of EBNA cells transfected with human MAO-A
T2 construct: expressed in transfected cells; host or cells: EBNA cells (transient transfection); cell membranes
T2 sequence (P21397 1-527): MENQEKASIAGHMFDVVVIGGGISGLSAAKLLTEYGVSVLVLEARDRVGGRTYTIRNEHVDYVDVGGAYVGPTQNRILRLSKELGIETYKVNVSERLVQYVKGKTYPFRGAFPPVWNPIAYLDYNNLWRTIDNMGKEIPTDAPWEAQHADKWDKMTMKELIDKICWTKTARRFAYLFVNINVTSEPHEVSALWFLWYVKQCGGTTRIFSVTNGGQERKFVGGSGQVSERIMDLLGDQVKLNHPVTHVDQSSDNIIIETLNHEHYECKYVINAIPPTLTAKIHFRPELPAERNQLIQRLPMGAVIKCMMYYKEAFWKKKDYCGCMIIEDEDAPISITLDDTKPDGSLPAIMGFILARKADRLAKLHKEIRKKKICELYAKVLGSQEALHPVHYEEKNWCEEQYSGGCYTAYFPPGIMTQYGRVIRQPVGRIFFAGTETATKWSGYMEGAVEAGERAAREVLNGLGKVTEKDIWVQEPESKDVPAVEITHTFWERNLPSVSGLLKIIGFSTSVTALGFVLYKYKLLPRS
Experimental: as §1, §2, §3

Compound	IC50 (human MAO-B) [nM]	IC50 (human MAO-A) [nM]
NC(=O)CNC(=O)c1ccc(OCc2cccc(F)c2)cn1 [Example 7, 5-(3-Fluoro-benzyloxy)-pyridine-2-carboxylic Acid Carbamoylmethyl-amide]	28	9160
NC(=O)CNC(=O)c1ccc(OCc2ccccc2)nc1 [Example 1, 6-Benzyloxy-N-carbamoylmethyl-nicotinamide]	33	> 10000
NC(=O)CNC(=O)c1ccc(OCc2cccc(F)c2)nc1 [Example 2, N-Carbamoylmethyl-6-(3-fluoro-benzyloxy)-nicotinamide]	30	4150

Results, then the compound that gave them:

IC50 (human MAO-B) [nM]	IC50 (human MAO-A) [nM]	Compound
30	> 10000	NC(=O)CNC(=O)c1ccc(OCc2ccc(F)cc2)cn1 [Example 8, 5-(4-Fluoro-benzyloxy)-pyridine-2-carboxylic Acid Carbamoylmethyl-amide]
70	> 10000	C[C@H](NC(=O)c1ccc(OCc2ccc(F)cc2)cn1)C(N)=O [Example 11, (S)-5-(4-Fluoro-benzyloxy)-pyridine-2-carboxylic Acid (1-carbamoyl-ethyl)-amide]
43	> 10000	NC(=O)CNC(=O)c1ccc(OCc2ccc(F)c(F)c2)cn1 [Example 9, 5-(3,4-Difluoro-benzyloxy)-pyridine-2-carboxylic Acid Carbamoylmethyl-amide]
